These results are taken from paper PMC10671360, “In Silico and In Vitro Study towards the Rational Design of 4,4′-Disarylbisthiazoles as a Selective α-Synucleinopathy Biomarker” (International Journal of Molecular Sciences, 2023).

What is called Ki is a dissociation constant, usually derived from enzyme kinetics or from competition with a known ligand.

The target of assay [1] is T1, Aβ1−42 fibrils (Homo sapiens, UniProt P05067).
T1 construct: 1 mg of β-amyloid1–42 peptide (Abcam, Cambridge, UK); purchased Abcam
T1 sequence (P05067 672-713): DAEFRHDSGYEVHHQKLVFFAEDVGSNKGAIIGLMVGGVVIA
In words: Competition binding assay against [^3H]PiB, Aβ1−42 fibrils. The note with it: read-out: Ki Aβ. Here is the method: (§1) After the dissolution of 1 mg of β-amyloid1–42 peptide (Abcam, Cambridge, UK) in 50 μL of DMSO, 925 μL of Milli-Q® water was added to it, and the mixture was stirred. Finally, 25 μL of 1M Tris HCl, pH 7.4 was added to bring the final peptide concentration to 1 mg/mL. The mixture was then left to incubate at 37 °C for 30 h with shaking at 900 rpm. To separate the non-aggregated monomers from the formed fibrils, the reaction mixture was centrifuged at 12,000× g for 5 min, and the resulting pellet was washed three times with 500 μL of 20 mM Tris-HCl, pH 7.4. The supernatants from the three centrifugation steps were combined, and the concentration of the monomer in the resulting supernatant was determined in a BCA assay (Thermo Fisher Scientific, Waltham, MA, USA) (with a BSA standard curve). Determination of the concentration of fibrils formed was carried out by subtracting the amount of β-amyloid1−42 peptide monomer in the supernatant from the initial amount used for fibrillation.
(§2) The pellets of the fibrils obtained above (Section 4.2.1) were resuspended in 20 mM of Tris-HCl, pH 7.4 and diluted as needed for the binding assays.
(§3) A fixed concentration of [^3H]DCVJ (10 nM) and α-synuclein aggregates (125 nM), prepared as described above (Section 4.2.3), was used with different final concentrations of the DABTAs from 0.01 to 100 nM (see SI Figure S1). The experiment was carried out in quintuplicate for each concentration. The mixture was incubated for 2 h in a final volume of 200 μL per well after dilution with 20 mM of Tris-HCl, pH 7.4. The incubated mixtures were filtered through a Perkin Elmer GF/B glass filter via a TOMTEC cell harvester and immediately washed thrice with 1 mL of deionized water. The filters containing the bound ligands were dried and afterwards mixed with 3 mL of BetaPlate Scint solution (Perkin Elmer Life Sciences, Waltham, MA, USA) and left there for 2 h before counting in a Wallac 1450 MicroBeta TriLux Liquid Scintillation Counter (PerkinElmer Life Sciences, Waltham, MA, USA). For the determination of the inhibition constants, data were analyzed using GraphPad Prism software (version 7.0) to obtain IC50 values by fitting the data to the equation Y = bottom + (top − bottom)/(1 + 10(x − log IC50)). Ki values were calculated from IC50 values using the equation Ki = IC50/(1 + [radioligand]/Kd). […] Further protocol was carried out as for [^3H]DCVJ (see SI Figure S3).
Further procedures followed the same already described in Section 4.2.3.1 (See SI Figure S4).

In assay [2] the target is T1, Aβ1−42 fibrils. As to the kind of experiment: Competition binding assay against [^3H]DCVJ, Aβ1−42 fibrils. Particulars: [^3H]DCVJ was used (10 nM); Aβ1−42 aggregates 125 nM; read-out: Ki Aβ. Here is the method:
as §1, §2, §3
Fixed concentrations (125 nM) of Aβ1−42, tau aggregates, and [^3H]DCVJ (10 nM and 20 nM for the Aβ1−42 and tau competition experiments respectively) were used with different concentrations of cold versions of the tracers from 1 to 1000 nM (See SI Figure S2). The experiment was performed in quadruplicate for each concentration. […]

Assay [3] has as its target T2, recombinant α-syn fibrils (Homo sapiens, UniProt P37840).
T2 construct: made in house
As to the kind of experiment: Competition binding assay against [^3H]DCVJ, α-syn fibrils. Particulars: for Selectivity Aβ/α-syn / Selectivity tau/α-syn: ratio of Ki, [^3H]DCVJ was used. As for the experimental part:
The incubation of purified recombinant α-synuclein monomer (10 mg/mL) obtained as described by Uzuegbunam was carried out in PBS (pH 7.4) at 37 °C. The solution was left shaking at 900 rpm in an Eppendorf Thermomixer for up to 84 h. Determination of the concentration of the formed fibrils (α-syn) was carried out following the centrifugation of the reaction vial at 12,000× g for 5 min. The pellet obtained was washed thrice with 20 mM of Tris-HCl, pH 7.4. The supernatants from the three centrifugation steps were combined, and the concentration of the monomer in the resulting supernatant was determined in a BCA assay (Thermo Fisher Scientific, Waltham, MA, USA) (with a BSA standard curve). Determination of the concentration of α-syn was carried out by subtracting the amount of α-synuclein monomer in the supernatant from the initial amount used for fibrillation.
as §2, §3

[4] abbreviates: [^3H]DCVJ was used (10 nM), α-synuclein aggregates 125 nM.

In the case of `Fc1ncc(-c2csc(-c3nc(-c4cnc5c(c4)OCO5)cs3)n2)cn1` [d10], the figures for the Ki in assay [1], in assay [2] and in assay [3] (setting [4]) were 214 nM, 407 nM and 1.36 nM, respectively. In addition, in assay [3], the “Selectivity Aβ/α-syn” value amounted to 299.1. In assay [3], the “Selectivity tau/α-syn” value is over 735.3.
The corresponding values for `FCCOc1cnc(-c2csc(-c3nc(-c4cnc5c(c4)OCO5)cs3)n2)nc1` [f4, 6-(4′-(5-(2-Fluoroethoxy)pyrimidin-2-yl)-[2,2′-bithiazol]-4-yl)-[1,3]dioxolo[4,5-b]pyridine] are 185 nM, 251 nM, 0.99 nM, 253.1 and 469.6.
Take `FCCOc1cnc(-c2csc(-c3nc(-c4ccc5c(c4)OCO5)cs3)n2)nc1` [f5, 4-(Benzo[d][1,3]dioxol-5-yl)-4′-(5-(2-fluoroethoxy)pyrimidin-2-yl)-2,2′-bithiazole]: the Ki stood at 155 nM in assay [1], 134 nM in assay [2] and 2.27 nM in assay [3] (setting [4]). The “Selectivity Aβ/α-syn” value in assay [3] was determined as 58.9. The “Selectivity tau/α-syn” value in assay [3] was 227.0.
Take `FCCOCCOc1cnc(-c2csc(-c3nc(-c4ccc5c(c4)OCO5)cs3)n2)nc1` [f6, 4-(Benzo[d][1,3]dioxol-5-yl)-4′-(5-(2-(2-fluoroethoxy)ethoxy)pyrimidin-2-yl)-2,2′-bithiazole]: the Ki in assay [1] is 96.7 nM. The Ki in assay [2] came out at 198 nM. Moreover, in assay [3] (setting [4]), the Ki was determined as 0.5 nM and the “Ki α-syn” value is recorded as “subnanomolar”. In assay [3], the “Selectivity Aβ/α-syn” value amounted to 395.6 and the “Selectivity tau/α-syn” value came to 874.4.
